# Assay results: patent US6613308B2, “Pulmonary delivery in treating disorders of the central nervous system” (Advanced Inhalation Research, Inc., priority 2000, dated 2003)
# How the values were obtained:
# PZT-induced seizures = assay: PZT-induced seizures; format: in vivo, rats; conditions: for Duration of Seizure / Minutes to Seizure Onset: mean
# Protocol: The pharmacodynamic effects of a pulmonary versus oral benzodiazepine-type drug, alprazolam, were evaluated using a standard pre-clinical test of anxiolytic drug action. In this test, the chemical convulsant pentylenetetrazol (PZT), which is known to produce well characterized seizures in rodents, was administered to rats. The test was selected based on its sensitivity to a wide range of benzodiazapines and to the fact that the relative potency of benzodiazapines in blocking PZT-induced seizures is believed to be similar to the magnitude of their anti-anxiety effects in humans. The ability of alprazolam to block PZT-induced seizures was used as a measure of the pharmacodynamic effects of alprazolm.
# Determinations of the […] activity of alprazolam were made following oral gavage, or insufflation directly into the lungs of rats. Alprazolam (Sigma, St. Louis, Mo. was administered via aerodynamically light particles which included 10% alprazolam, 20% sodium citrate, 10% calcium chloride and 60% DPPC. For oral delivery, alprazolam was suspended in light corn syrup and administered via gavage. For pulmonary delivery, an insufflation technique was used. Animals were briefly anesthetized with isoflurane (1-2%) and a laryngoscope was used to visualize the epiglottis and the blunt-tip insufflation device (PennCentury Insufflation powder delivery device) was inserted into the airway. A bolus of air (3 cc), from an attached syringe, was used to deliver the pre-loaded powder from the chamber of the device into the animals' lungs. The doses for pulmonary delivery were 0 (blank particles that included 20% sodium citrate, 10% calcium chloride and 70% DPPC), 0.088, 0.175, or 0.35 mgs total alprazolam, and the doses for oral delivery were 0, 0.088, 0.175, 0.35, 0.70, 1.75, or 3.50 mgs total alprazolam. These doses were chosen to encompass the range of effective and ineffective oral doses. Accordingly, any potential benefits of pulmonary delivery could be directly compared to the oral dose response curve for alprazolam.
# For both oral and pulmonary delivery, alprazolam was administered either 10 or 30 minutes prior to PZT, obtained from Sigma, St. Louis, Mo., (60 mg/kg given i.p). To control for potential interactions between alprazolam and isoflurane, all animals receiving oral alprazolam also received isoflurane immediately following dosing as described above. For all animals, the number of seizures as well as the time to seizure onset and seizure duration was recorded for 45 minutes after administration of PZT.
# [1] = 14C levels in plasma, brain and peripheral organs after 14C-carboplatin IV or pulmonary administration; format: in vivo, rat; conditions: 10 minutes; for Plasma Levels of 14C: 100 μCi/8 mg
# Protocol: Blood, brain and peripheral organ levels of ^14C were determined following administration of ^14C-Carboplatin via either IV or pulmonary administration. A total of 100 μCi of radiolabeled carboplatin was mixed with unlabelled carboplatin to provide a total drug concentration of 8 mg/rat. All animals were anesthetized using ketamine. For IV administration, carboplatin was administered via a previously placed femoral cannula. For pulmonary administration, a 24 gauge catheter was placed within the trachea and the carboplatin was administered using a Harvard ventilator over a 3-5 second period using a tidal volume of 1 ml and 100 strokes/minutes. Blood samples were taken at 10 minutes post drug administration (N=6 per time point for each group). Brains were removed and dissected into various regions including the olfactory, frontal, and occipital cortices, the hippocampus, striatum, and cerebellum. Peripheral organs included the kidneys, spleen, heart, testes, and muscle. All samples were then processed for determinations of ^14C levels using scintillation.
# Absolute plasma levels of ^14C were higher following IV administration. […] This point is clearer when the ratio of brain to blood ^14C levels was calculated. […] Absolute levels of ^14C in peripheral tissue was also lower following pulmonary administration (92% lower relative to IV). In contrast to the large differences in selectivity seen in the brain, the relative peripheral selectivity (derived from dividing the levels of radioactivity in peripheral organs by that in the blood) was only 47% higher in the pulmonary group.
# [2] = oral, 10 minutes prior to PZT, 0.35 mgs
# [3] = oral, 10 minutes prior to PZT, 0.70 mgs
# [4] = oral, 10 minutes prior to PZT, 1.75 mgs
# [5] = oral, 10 minutes prior to PZT, 3.50 mgs
# [6] = oral, 30 minutes prior to PZT, 0.088 mgs
# [7] = oral, 30 minutes prior to PZT, 0.175 mgs
# [8] = oral, 30 minutes prior to PZT, 0.35 mgs
# [9] = pulmonary, 10 minutes prior to PZT, 0.088 mgs
# [10] = pulmonary, 10 minutes prior to PZT, 0.175 mgs
# [11] = pulmonary, 10 minutes prior to PZT, 0.35 mgs
# [12] = pulmonary, 10 minutes prior to PZT, 0.35 mgs, listed as alprazolam
# [13] = pulmonary, 30 minutes prior to PZT, 0.088 mgs
# [14] = pulmonary, 30 minutes prior to PZT, 0.175 mgs
# [15] = pulmonary, 30 minutes prior to PZT, 0.35 mgs
smiles,measurement,setting,value
"Cc1nnc2n1-c1ccc(Cl)cc1C(c1ccccc1)=NC2 [Alprazolam, alprazolam]",pulmonary dose lower than maximally effective oral dose for comparable decrease in seizure duration,"PZT-induced seizures; 10 minutes prior to PZT, 0.088 vs 3.50 mgs",~40 fold
same,oral dose relative to pulmonary dose for comparable time to seizure onset,"PZT-induced seizures; 10 minutes prior to PZT, 0.35 vs 3.50 mgs",10 times
same,oral dose required relative to pulmonary dose for comparable seizure suppression,"PZT-induced seizures; 10 minutes prior to PZT, 3.50 vs 0.35 mgs",approximately 10 times
same,lowest oral dose that significantly increases time to seizure onset,"PZT-induced seizures; oral, 10 minutes prior to PZT",1.75 mgs
same,maximally effective oral dose on seizure duration,"PZT-induced seizures; oral, 10 minutes prior to PZT",3.50 mgs
same,Animals With Seizures,PZT-induced seizures; [2],13/15
same,Animals With Seizures (%),PZT-induced seizures; [2],(87%)
same,Duration of Seizure,PZT-induced seizures; [2],88.0 s
same,Minutes to Seizure Onset,PZT-induced seizures; [2],11.49 min
same,Animals With Seizures,PZT-induced seizures; [3],13/15
same,Animals With Seizures (%),PZT-induced seizures; [3],(87%)
same,Duration of Seizure,PZT-induced seizures; [3],62.07 s
same,Minutes to Seizure Onset,PZT-induced seizures; [3],9.24 min
same,Animals With Seizures,PZT-induced seizures; [4],7/15
same,Animals With Seizures (%),PZT-induced seizures; [4],(47%)
same,Duration of Seizure,PZT-induced seizures; [4],14.47 s
same,Minutes to Seizure Onset,PZT-induced seizures; [4],29.03 min
same,Animals With Seizures,PZT-induced seizures; [5],2/14
same,Animals With Seizures (%),PZT-induced seizures; [5],(14%)
same,Duration of Seizure,PZT-induced seizures; [5],5.40 s
same,Minutes to Seizure Onset,PZT-induced seizures; [5],43.37 min
same,Animals With Seizures,PZT-induced seizures; [6],11/15
same,Animals With Seizures (%),PZT-induced seizures; [6],(73%)
same,Duration of Seizure,PZT-induced seizures; [6],46.0 s
same,Minutes to Seizure Onset,PZT-induced seizures; [6],18.38 min
same,Animals With Seizures,PZT-induced seizures; [7],7/15
same,Animals With Seizures (%),PZT-induced seizures; [7],(47%)
same,Duration of Seizure,PZT-induced seizures; [7],15.0 s
same,Minutes to Seizure Onset,PZT-induced seizures; [7],33.10 min
same,Animals With Seizures,PZT-induced seizures; [8],4/15
same,Animals With Seizures (%),PZT-induced seizures; [8],(27%)
same,Animals With Seizures (%),"PZT-induced seizures; oral, 30 minutes prior to PZT, 0.35 mgs, listed as alprazolam",27%
same,Duration of Seizure,PZT-induced seizures; [8],19.0 s
same,Minutes to Seizure Onset,PZT-induced seizures; [8],37.58 min
same,Animals With Seizures,PZT-induced seizures; [9],5/15
same,Animals With Seizures (%),PZT-induced seizures; [9],(33%)
same,Animals With Seizures (%),"PZT-induced seizures; pulmonary, 10 minutes prior to PZT, 0.088 mgs, listed as alprazolam",33%
same,Duration of Seizure,PZT-induced seizures; [9],7.0 s
same,Minutes to Seizure Onset,PZT-induced seizures; [9],36.71 min
same,Animals With Seizures,PZT-induced seizures; [10],3/15
same,Animals With Seizures (%),PZT-induced seizures; [10],(20%)
same,Duration of Seizure,PZT-induced seizures; [10],8.0 s
same,Minutes to Seizure Onset,PZT-induced seizures; [10],38.61 min
same,Animals With Seizures,PZT-induced seizures; [11],2/15
same,Animals With Seizures (%),PZT-induced seizures; [11],(13%)
same,Animals With Seizures (%),PZT-induced seizures; [12],13%
same,Duration of Seizure,PZT-induced seizures; [11],4.0 s
same,Minutes to Seizure Onset,PZT-induced seizures; [11],42.28 min
same,Minutes to Seizure Onset,PZT-induced seizures; [12],> 42 min
same,Animals With Seizures,PZT-induced seizures; [13],9/15
same,Animals With Seizures (%),PZT-induced seizures; [13],(60%)
same,Duration of Seizure,PZT-induced seizures; [13],82.67 s
same,Minutes to Seizure Onset,PZT-induced seizures; [13],18.47 min
same,Animals With Seizures,PZT-induced seizures; [14],5/15
same,Animals With Seizures (%),PZT-induced seizures; [14],(33%)
same,Duration of Seizure,PZT-induced seizures; [14],16.07 s
same,Minutes to Seizure Onset,PZT-induced seizures; [14],34.05 min
same,Animals With Seizures,PZT-induced seizures; [15],2/15
same,Animals With Seizures (%),PZT-induced seizures; [15],(13%)
same,Duration of Seizure,PZT-induced seizures; [15],2.69 s
same,Minutes to Seizure Onset,PZT-induced seizures; [15],41.98 min
N.N.O=C([O-])C1(C(=O)[O-])CCC1.[Pt+2] [carboplatin],Absolute Brain Levels,[1]; IV,29.47 nCi/gram
same,"Absolute Tissue Levels (Peripheral Organs), excludes kidney",[1]; IV,0.03
same,Relative Brain Selectivity (Brain/Blood),[1]; IV,0.03
same,"Relative Peripheral Selectivity (Peripheral/Blood), excludes kidney",[1]; IV,0.44
same,Plasma Levels of 14C,[1]; IV,994.348
same,Absolute Tissue Levels (Peripheral Organs) (% Difference),[1]; Lung vs IV,+2833%
same,Plasma Levels (% Difference),[1]; Lung vs IV,−89.72%
same,Absolute Brain Levels,[1]; Lung,27.29 nCi/gram
same,"Absolute Tissue Levels (Peripheral Organs), excludes kidney",[1]; Lung,0.88
same,Relative Brain Selectivity (Brain/Blood),[1]; Lung,0.88
same,"Relative Peripheral Selectivity (Peripheral/Blood), excludes kidney",[1]; Lung,0.65
same,Plasma Levels of 14C,[1]; Lung,102.215
same,"Absolute levels of 14C in peripheral tissue, lower relative to IV",[1]; pulmonary vs IV,92%
